Test systems include OVCAR-3 ovarian; HL-60(TB) leukemia; OVCAR-4 ovarian; T-47D breast; OVCAR-5 ovarian; UACC-257 melanoma; HOP-92 NSCLC; UO-31 renal; CAKI-1 renal; MOLT-4 leukemia.
Test in all cases: inhibition of tumour cell growth, NCI panel, 48 h

Structures are written as SMILES.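 How tested: cells in 96-well plates exposed to compound for 48 hours at five concentrations. GI50 is the concentration that inhibits growth by half. TGI is the concentration that stops growth completely.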

Consider `Cc1cc(N(CCC#N)CCC#N)ccc1/C(N=Nc1cccc([N+](=O)[O-])c1)=N/NC(=O)c1cc(Cl)ccc1O`, for which the TGI with OVCAR-3 ovarian was 59.5 µM; with HL-60(TB) leukemia, 37.8 µM; in the test on OVCAR-4 ovarian, 92.2 µM; in the test with T-47D breast it was 71 µM; with OVCAR-5 ovarian, over 100 µM; in the test on UACC-257 melanoma, 94.1 µM. Moreover, the TGI is 76.3 µM in the test with HOP-92 NSCLC, 70.8 µM with UO-31 renal, 56.7 µM in the test with CAKI-1 renal and 32.1 µM with MOLT-4 leukemia.
For the molecule `CC(=O)Nc1ccc(CNc2cc(=O)[nH]c(=O)[nH]2)cc1`, the TGI in the test on OVCAR-3 ovarian, with HL-60(TB) leukemia, in the test on OVCAR-4 ovarian, with T-47D breast, in the test with OVCAR-5 ovarian and with UACC-257 melanoma was over 100 µM each time. Moreover, the TGI in the test with HOP-92 NSCLC, in the test with UO-31 renal, in the test with CAKI-1 renal and in the test on MOLT-4 leukemia was over 100 µM in each case.
In the case of `O=C1C2C=CC1C1C(=O)OC(=O)C21` (stereo unspecified), the TGI in the test on OVCAR-3 ovarian, in the test on HL-60(TB) leukemia, with OVCAR-4 ovarian, with T-47D breast, in the test with OVCAR-5 ovarian and with UACC-257 melanoma was over 100 µM in each case. Also, the TGI with HOP-92 NSCLC, in the test with UO-31 renal, in the test with CAKI-1 renal and in the test on MOLT-4 leukemia was over 100 µM each time.
As to `Nc1nc(Cl)cc(NCC2(CO)CCC(Cc3ccccc3)C2)n1` (stereo unspecified), the TGI in the test with OVCAR-3 ovarian was over 100 µM; with HL-60(TB) leukemia, 26.1 µM; in the test on OVCAR-4 ovarian, over 100 µM; in the test with T-47D breast it was over 70.3 µM; in the test with OVCAR-5 ovarian, over 100 µM; in the test with UACC-257 melanoma, over 50.7 µM. The TGI in the test with HOP-92 NSCLC was over 93.8 µM; in the test with UO-31 renal, over 92.6 µM; with CAKI-1 renal it was 95.6 µM; in the test with MOLT-4 leukemia, 30.6 µM.
On to `O=C(CSc1nc(=O)[nH]c2nc[nH]c12)Nc1ccccc1`, for which the TGI in the test with OVCAR-3 ovarian, in the test with HL-60(TB) leukemia, in the test with OVCAR-4 ovarian, with T-47D breast, with OVCAR-5 ovarian and in the test with UACC-257 melanoma was over 100 µM each time. Moreover, the TGI with HOP-92 NSCLC, with UO-31 renal, in the test on CAKI-1 renal and in the test with MOLT-4 leukemia was over 100 µM throughout.
Turning to `COc1ccc(C2SCC(=O)N2c2ccc(-c3ccc(-n4c(-c5ccccc5)nc5ccccc5c4=O)cc3)cc2)cc1` (stereo unspecified), the TGI with OVCAR-3 ovarian was 46.8 µM; with HL-60(TB) leukemia, over 100 µM; with OVCAR-4 ovarian, over 100 µM; in the test with T-47D breast it was over 100 µM; with OVCAR-5 ovarian, 87.2 µM; in the test with UACC-257 melanoma, over 100 µM. For the same molecule, the TGI in the test on HOP-92 NSCLC, with UO-31 renal, with CAKI-1 renal and with MOLT-4 leukemia was over 100 µM each time.
Take `O=C1OC(c2ccc(O)c(Cl)c2)(c2ccc(O)c(Cl)c2)c2ccc(Br)c3cccc1c23` (tested in a mixture with another compound): the TGI in the test on OVCAR-3 ovarian was 21.8 µM; with HL-60(TB) leukemia it was 41.8 µM; in the test with OVCAR-4 ovarian it was 11.6 µM; with T-47D breast, 13.3 µM; with OVCAR-5 ovarian, 34.5 µM; in the test on UACC-257 melanoma, 34.8 µM. The TGI in the test with HOP-92 NSCLC worked out at 26.1 µM; in the test on UO-31 renal, 33.4 µM; in the test on CAKI-1 renal, 29.2 µM; in the test on MOLT-4 leukemia, 41.8 µM. In addition, the GI50 in the test on HL-60(TB) leukemia was 17.5 µM.
In the case of `Cc1ccc(/C=C/C(=O)c2c([O-])on[n+]2-c2ccccc2)cc1`, the TGI was 6.92 µM in the test with OVCAR-3 ovarian; 6.55 µM with HL-60(TB) leukemia; over 21.1 µM with OVCAR-4 ovarian; 9.49 µM in the test on T-47D breast; 15.5 µM in the test on OVCAR-5 ovarian; 16 µM in the test on UACC-257 melanoma. For the same molecule, the TGI was determined as 16.8 µM in the test on HOP-92 NSCLC, 6.24 µM with UO-31 renal, 3.87 µM in the test with CAKI-1 renal and 6.64 µM with MOLT-4 leukemia.
`NC1C/C(=N\O)c2c(I)sc(I)c21` (stereo unspecified): the TGI in the test on OVCAR-3 ovarian is 30.2 µM; in the test with HL-60(TB) leukemia, over 100 µM; in the test on OVCAR-4 ovarian, over 64.9 µM; in the test on T-47D breast, 52.3 µM; in the test on OVCAR-5 ovarian, 31.4 µM; with UACC-257 melanoma, 31.8 µM. Besides, the TGI was 34.5 µM in the test on HOP-92 NSCLC, 30.1 µM in the test with UO-31 renal, 28.6 µM in the test with CAKI-1 renal and over 100 µM in the test on MOLT-4 leukemia.
With `CC(=O)Oc1ccc2c(c1)c1c(=O)oc(N(C)C)nc1n2Cc1ccccc1`, the TGI with OVCAR-3 ovarian is over 100 µM; with HL-60(TB) leukemia it was over 100 µM; in the test with OVCAR-4 ovarian, over 100 µM; with T-47D breast it was over 92.9 µM; with OVCAR-5 ovarian it was over 100 µM; in the test on UACC-257 melanoma it was over 100 µM. Further, the TGI is over 100 µM with HOP-92 NSCLC, over 81.8 µM in the test with UO-31 renal, over 73.3 µM in the test on CAKI-1 renal and over 100 µM in the test with MOLT-4 leukemia.
As for `NNC(=O)CNC(=O)CSc1nnc(COc2ccc(Cl)cc2)n1-c1ccccc1`, the TGI in the test with OVCAR-3 ovarian, in the test with HL-60(TB) leukemia, in the test on OVCAR-4 ovarian, in the test with T-47D breast, with OVCAR-5 ovarian and in the test on UACC-257 melanoma was over 100 µM each time. Also, the TGI in the test on HOP-92 NSCLC, in the test with UO-31 renal, in the test on CAKI-1 renal and in the test on MOLT-4 leukemia was over 100 µM each time.
`CC(=O)OCC1OC(n2c(N)c(C#N)c(-c3ccccc3)c(C#N)c2=S)C(OC(C)=O)C(OC(C)=O)C1OC(C)=O` (stereo unspecified): the TGI in the test with OVCAR-3 ovarian, with HL-60(TB) leukemia, with OVCAR-4 ovarian, in the test on T-47D breast, in the test on OVCAR-5 ovarian and in the test on UACC-257 melanoma was over 100 µM each time. Further, the TGI is 50.9 µM in the test on HOP-92 NSCLC, over 100 µM in the test on UO-31 renal, over 100 µM in the test on CAKI-1 renal and over 100 µM with MOLT-4 leukemia.
With `O=P(O)(O)C(O)/C=C/c1ccccc1` (stereo unspecified), the TGI with OVCAR-3 ovarian, with HL-60(TB) leukemia, with OVCAR-4 ovarian, with T-47D breast, in the test on OVCAR-5 ovarian and in the test with UACC-257 melanoma was over 100 µM each time. The TGI in the test with HOP-92 NSCLC, in the test on UO-31 renal, with CAKI-1 renal and in the test with MOLT-4 leukemia was over 100 µM each time.
Consider `O=C1c2cc3ccccc3cc2C2(c3ccc(Cl)cc3)N[C@H]3CCCC[C@@H]3N12` (stereo partly specified), for which the TGI in the test with OVCAR-3 ovarian worked out at 49 µM; in the test with HL-60(TB) leukemia, 55.6 µM; in the test with OVCAR-4 ovarian it was 21.3 µM; with T-47D breast, 52.7 µM; with OVCAR-5 ovarian, 60.2 µM; in the test on UACC-257 melanoma, 48 µM. In addition, the TGI in the test on HOP-92 NSCLC is 98.5 µM; in the test with UO-31 renal it was 57.6 µM; in the test on CAKI-1 renal, 70.3 µM; in the test on MOLT-4 leukemia, over 100 µM.
With `COC(=O)C(CCC1C=CCC1)N=Cc1ccccc1` (stereo unspecified), the TGI with OVCAR-3 ovarian, in the test with HL-60(TB) leukemia, in the test with OVCAR-4 ovarian, with T-47D breast, with OVCAR-5 ovarian and in the test on UACC-257 melanoma was over 100 µM each time. For the same molecule, the TGI in the test on HOP-92 NSCLC, with UO-31 renal, with CAKI-1 renal and with MOLT-4 leukemia was over 100 µM throughout.
Take `O=C(CN1CCN(C(=O)OCc2ccccc2)CCN(CC(=O)N2CCCCC2)CCN(C(=O)OCc2ccccc2)CC1)N1CCCCC1`: the TGI was 22.8 µM in the test on OVCAR-3 ovarian; over 35.4 µM with HL-60(TB) leukemia; 25.4 µM with OVCAR-4 ovarian; 38.8 µM in the test on T-47D breast; 48.8 µM with OVCAR-5 ovarian; 9.75 µM in the test with UACC-257 melanoma. In addition, the TGI in the test on HOP-92 NSCLC was 27.2 µM; with UO-31 renal, 30.6 µM; in the test with CAKI-1 renal it was 28.9 µM; with MOLT-4 leukemia it was over 46 µM.
Regarding `CC1(c2ccc(Cl)cc2)CC(c2ccc(Cl)cc2)=C(C#N)C(=C(C#N)C#N)N1` (stereo unspecified), the TGI with OVCAR-3 ovarian turned out to be 24.3 µM; with HL-60(TB) leukemia, 78.6 µM; in the test with OVCAR-4 ovarian, 35.7 µM; in the test on T-47D breast, 40 µM; in the test on OVCAR-5 ovarian it was 61.9 µM; with UACC-257 melanoma it was 37.1 µM. The TGI amounted to 11 µM with HOP-92 NSCLC, 30.7 µM with UO-31 renal, 32.5 µM in the test on CAKI-1 renal and 60.3 µM in the test with MOLT-4 leukemia.
In the case of `Cc1ccc2c(c1)NC(=O)CCSSCCC(=O)N2`, the TGI in the test with OVCAR-3 ovarian, in the test on HL-60(TB) leukemia, in the test with OVCAR-4 ovarian, in the test with T-47D breast, in the test on OVCAR-5 ovarian and with UACC-257 melanoma was over 100 µM throughout. Moreover, the TGI in the test with HOP-92 NSCLC, with UO-31 renal, with CAKI-1 renal and in the test on MOLT-4 leukemia was over 100 µM each time.
For `O=C(O)CSc1cc(-c2ccccc2)nc2ccccc12`, the TGI in the test on OVCAR-3 ovarian was 49 µM; in the test with HL-60(TB) leukemia, 58.2 µM; with OVCAR-4 ovarian it was over 100 µM; in the test with T-47D breast, over 100 µM; in the test on OVCAR-5 ovarian, over 100 µM; in the test on UACC-257 melanoma, over 100 µM. Besides, the TGI in the test with HOP-92 NSCLC, in the test with UO-31 renal, in the test on CAKI-1 renal and with MOLT-4 leukemia was over 100 µM in each case.
Take `O=C(O)CSCC(=O)Nc1ccc2cccc3c2c1CC3`: the TGI in the test with OVCAR-3 ovarian, in the test with HL-60(TB) leukemia, in the test with OVCAR-4 ovarian, with T-47D breast, with OVCAR-5 ovarian and with UACC-257 melanoma was over 100 µM in each case. The TGI in the test with HOP-92 NSCLC, with UO-31 renal, with CAKI-1 renal and in the test on MOLT-4 leukemia was over 100 µM in each case.

The values are drawn from PubChem BioAssay (NCI).
